Among the data in patent US20260356851A1, “TRICYCLIC COMPOUNDS AND USES THEREOF” (HUTCHMED LIMITED, priority 2023, published 2026) are IC50 values, retold here.

A value given as a limit tells only on which side of the number the result lay.

Type in all cases: cell-based
Assay [1] has as its target T1, pERK1/2 (Thr202/Tyr204), NCI-1H358 (KRAS G12C) (Homo sapiens, UniProt P01116, G12C).
T1 construct: pERK1/2 HTRF read-out
Description: Assay of intracellular pERK1/2 (Thr202/Tyr204) phosphorylation in NCI-H358 cells (KRAS G12C). To be noted: pERK1/2, 2 days, read-out: NCI-H358 (KRAS G12C) IC50. The procedure: (§1) Example 2: Assay of intracellular pERK1/2 (Thr202/Tyr204)phosphorylation
(§2) 1. Reagents and materials: • pERK1/2 (Thr202/Tyr2O4) HIRE kit, Cisbio, Cat #64ERKPEH; • OptiPlate™-384-well plate, PerkinElmer, Cat #6007299; • 96-well plate, Coming, Cat #353072; • Instrument: EnVision2104, PerkinElmer; • Cell lines: NCI-1H358 (KRAS G12C), ATCC, CRL-5807; PANC-1 (KRAS G121D), ATCC, CRL-1469; NCI-1H441 (KRAS G12V), ATCC, HTB-174.
(§3) 2. Preparation of Reaction Solutions
(§4) • A test compound was dissolved in DMSO, diluted to 200.0 μM and further diluted 3-fold to prepare a series of test compounds at concentrations of 66.7, 22.2, 7.4, 2.5, 0.82, 0.27, 0.09 μM etc. Then 10 μL of the compound at different dilution concentrations was added to 190 μL of a DMEM medium to prepare a 10× test compound; • 1× cell lysis buffer: 4× cell lysis stock solution (provided by the kit) was diluted 4-fold with deionized water, and then 10% 100× blocking stock solution (provided by the kit) was added thereto. • pERK1/2 detection solution (prepared just before use): the pERK1/2 d2 antibody (provided by the kit) and pERK1/2 Cryptate antibody (provided by the kit) were diluted with the detection solution (provided by the kit) at a ratio of 1:1:38.
(§5) • Cells were inoculated into a 96-well plate (100 μL/well) at a density of 10000-12000/well. No cell was inoculated into a negative control well, and only the cell medium was added at 100 μL/well. The plate was placed in a cell incubator at 5% CO2 and 37° C. overnight. • 10 μL of the 10× test compound was added to the 100 μL cell culture 96-well plate; both the positive control well (that is, the control hole without chemical compound treatment) and the negative control well were charged with 10 μL of a 5% DMSO culture solution; and the plate was cultured in a cell incubator at 5% CO2 and 37° C. for 2 days. • The medium in the 96-well plate was removed; 50 μL of the 1× cell lysis buffer was added to each of the wells; the plate was placed in a microplate shaker; and lysis under shaking was carried out at 900 rpm at room temperature for 1 hour. • 16 μL of the lysis buffer in the 96-well plate was taken and transferred to a 384-well plate, followed by centrifugation at 1000 rpm for 30 s; then 4 μL of pERK1/2 detection solution was added to each well, followed by centrifugation at 1000 rpm for 30 s; and the 384-well plate was sealed with a sealing membrane and incubated at 25° C. on a low-speed shaker at 100 rpm in the dark for 2 hours. • The fluorescence value (RFU) of each well was detected on EnVision2104, with an emission wavelength 1 being 665 nm and an emission wavelength 2 being 615 nm.
(§6) Fluorescence ratio=fluorescence value665 nm/fluorescence value615 nm
(§7) Inhibition rate (%)=100−((fluorescence ratio of compound well−fluorescence ratio of negative control well)/(fluorescence ratio of positive control well−fluorescence ratio of negative control well))×100
(§8) wherein: • the fluorescence ratio of compound well refers to the fluorescence ratio of the well containing the test compounds; • the fluorescence ratio of negative control well refers to the fluorescence ratio of the cell-free control well; • the fluorescence ratio of positive control well refers to the fluorescence ratio of the cell well treated with 0.5% DMSO.
(§9) IC50 value: obtained by calculation using XL-Fit 5.0 software.

Assay [2] addresses T2, pERK1/2 (Thr202/Tyr204), PANC-1 (KRAS G121D) (Homo sapiens, UniProt P01116, G12D).
T2 construct: pERK1/2 HTRF read-out
Nature of the assay: Assay of intracellular pERK1/2 (Thr202/Tyr204) phosphorylation in PANC-1 cells (KRAS G12D). The following applies: pERK1/2, 2 days, read-out: PANC-1 (KRAS G12D) IC50. The procedure: as §1, §2, §3, §4, §5, §6, §7, §8, §9

Assay [3] deals with T3, pERK1/2 (Thr202/Tyr204), NCI-1H441 (KRAS G12V) (Homo sapiens, UniProt P01116, G12V).
T3 construct: pERK1/2 HTRF read-out
T3 sequence (P01116 1-188 isoform P01116-2 G12V): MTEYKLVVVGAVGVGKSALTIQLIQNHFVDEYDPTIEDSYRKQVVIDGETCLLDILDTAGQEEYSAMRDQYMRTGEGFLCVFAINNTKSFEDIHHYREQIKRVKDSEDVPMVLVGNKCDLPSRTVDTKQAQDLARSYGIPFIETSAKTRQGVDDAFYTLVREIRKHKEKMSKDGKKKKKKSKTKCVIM
Nature of the assay: Assay of intracellular pERK1/2 (Thr202/Tyr204) phosphorylation in NCI-H441 cells (KRAS G12V). The following applies: pERK1/2, 2 days, read-out: NCI-H441 (KRAS G12V) IC50. The procedure: as §1, §2, §3, §4, §5, §6, §7, §8, §9

T2 sequence (P01116 1-188 isoform P01116-2 G12D): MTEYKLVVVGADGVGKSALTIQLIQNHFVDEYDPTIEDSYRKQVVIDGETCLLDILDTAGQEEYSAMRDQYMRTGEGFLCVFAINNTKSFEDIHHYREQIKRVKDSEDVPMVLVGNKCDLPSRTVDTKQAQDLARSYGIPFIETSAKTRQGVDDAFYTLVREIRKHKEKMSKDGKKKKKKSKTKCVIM
T1 sequence (P01116 1-188 isoform P01116-2 G12C): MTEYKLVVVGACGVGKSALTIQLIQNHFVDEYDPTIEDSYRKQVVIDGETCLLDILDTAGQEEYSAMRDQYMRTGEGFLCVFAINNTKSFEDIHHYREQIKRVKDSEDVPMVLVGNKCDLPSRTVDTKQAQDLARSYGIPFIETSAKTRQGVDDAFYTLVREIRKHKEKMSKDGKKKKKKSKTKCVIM

As usually defined, the IC50 is the concentration that inhibits the measured activity by half. `C[C@H](c1cccnc1N)N1CCOc2nc(-c3cc(O)cc(Cl)c3C3CC3)c(F)c3nc(OC[C@@H]4CCN4CC(F)F)nc1c23` (single isomer, unassigned) [Compound 20, 3-(10-((R or S)-1-(2-aminopyridin-3-yl)ethyl)-2-(((S)-1-(2,2-difluoroethyl)azetidin-2-yl)methoxy)-4-fluoro-9,10-dihydro-8H-7-oxa-1,3,6,10-tetraazacyclohepta[de]naphthalen-5-yl)-5-chloro-4-cyclopropylphenol]: the IC50 in assay [1] was 783 nM; in assay [2], above 1000 nM; in assay [3], above 1000 nM.

On to `CC(c1cccnc1N)N1CCOc2nc(-c3cc(O)cc(Cl)c3C3CC3)c(F)c3nc(OC[C@@H]4CCN4CC(F)F)nc1c23` (single isomer, unassigned) [Compound 21, 3-(10-((R or S)-1-(2-aminopyridin-3-yl)ethyl)-2-(((S)-1-(2,2-difluoroethyl)azetidin-2-yl)methoxy)-4-fluoro-9,10-dihydro-8H-7-oxa-1,3,6,10-tetraazacyclohepta[de]naphthalen-5-yl)-5-chloro-4-cyclopropylphenol], for which the IC50 in assay [1] was found to be 0.5 nM; in assay [2] it was 82 nM; in assay [3], 3 nM.

On to `CC(c1cccnc1N)N1CCOc2nc(-c3cc(O)cc(F)c3C3CC3)c(F)c3nc(OC[C@@H]4CCN4CC(F)F)nc1c23` (single isomer, unassigned) [Compound 23, 3-(10-((R or S)-1-(2-aminopyridin-3-yl)ethyl)-2-(((S)-1-(2,2-difluoroethyl)azetidin-2-yl)methoxy)-4-fluoro-9,10-dihydro-8H-7-oxa-1,3,6,10-tetraazacyclohepta[de]naphthalen-5-yl)-4-cyclopropyl-5-fluorophenol], for which the IC50 in assay [1], in assay [2] and in assay [3] was above 1000 nM throughout.

Consider `CC(c1cccnc1N)N1CCOc2nc(-c3cc(O)cc(F)c3C3CC3)c(F)c3nc(OC[C@@H]4CCN4CC(F)F)nc1c23` (single isomer, unassigned) [Compound 24, 3-(10-((R or S)-1-(2-aminopyridin-3-yl)ethyl)-2-(((S)-1-(2,2-difluoroethyl)azetidin-2-yl)methoxy)-4-fluoro-9,10-dihydro-8H-7-oxa-1,3,6,10-tetraazacyclohepta[de]naphthalen-5-yl)-4-cyclopropyl-5-fluorophenol], for which the IC50 in assay [1] turned out to be 3 nM; in assay [2], 290 nM; in assay [3], 11 nM.

Turning to `C[C@H](c1cccnc1N)N1CCOc2nc(-c3c(C(F)(F)F)ccc4[nH]ncc34)c(F)c3nc(OC[C@@]45CCCN4C[C@H](F)C5)nc1c23` (single isomer, unassigned) [Compound 26, 3-((1R or 1S)-1-(4-fluoro-2-(((2R,7aS)-2-fluorotetrahydro-1H-pyrrolizin-7a(5H)-yl)methoxy)-5-(5-(trifluoromethyl)-1H-indazol-4-yl)-8,9-dihydro-10H-7-oxa-1,3,6,10-tetraazacyclohepta[de]naphthalen-10-yl)ethyl)pyridin-2-amine], the IC50 in assay [1] was 886 nM; in assay [2], above 1000 nM; in assay [3], above 1000 nM.

Take `C[C@@H](c1cccnc1N)N1CCOc2nc(-c3c(C(F)(F)F)ccc4[nH]ncc34)c(F)c3nc(OC[C@@]45CCCN4C[C@H](F)C5)nc1c23` (single isomer, unassigned) [Compound 27, 3-((1R or 1S)-1-(4-fluoro-2-(((2R,7aS)-2-fluorotetrahydro-1H-pyrrolizin-7a(5H)-yl)methoxy)-5-(5-(trifluoromethyl)-1H-indazol-4-yl)-8,9-dihydro-10H-7-oxa-1,3,6,10-tetraazacyclohepta[de]naphthalen-10-yl)ethyl)pyridin-2-amine]: the IC50 was 2 nM in assay [1], 106 nM in assay [2] and 11 nM in assay [3].

On to `CC(c1cccnc1N)N1CCOc2nc(-c3cc(O)cc4ccc(F)c(F)c34)c(F)c3ncnc1c23` (single isomer, unassigned) [Compound 29, (R or S)-4-(10-(1-(2-aminopyridin-3-yl)ethyl)-4-fluoro-9,10-dihydro-8H-7-oxa-1,3,6,10-tetraazacyclohepta[de]naphthalen-5-yl)-5,6-difluoronaphthalen-2-ol], for which the IC50 in assay [1], in assay [2] and in assay [3] was above 1000 nM throughout.

For the compound `CC(c1cccnc1N)N1CCOc2nc(-c3cc(O)cc4ccc(F)c(F)c34)c(F)c3ncnc1c23` (single isomer, unassigned) [Compound 30, (R or S)-4-(10-(1-(2-aminopyridin-3-yl)ethyl)-4-fluoro-9,10-dihydro-8H-7-oxa-1,3,6,10-tetraazacyclohepta[de]naphthalen-5-yl)-5,6-difluoronaphthalen-2-ol], the IC50 in assay [1] was 31 nM; in assay [2] it was above 1000 nM; in assay [3], 64 nM.

For the compound `CC(c1cccnc1N)N1CCOc2nc(-c3cc(O)cc(Cl)c3C3CC3)c(F)c3nc(OC[C@@H]4CCCN4C)nc1c23` (single isomer, unassigned) [Compound 31, 3-(10-((R or S)-1-(2-aminopyridin-3-yl)ethyl)-4-fluoro-2-(((S)-1-methylpyrrolidin-2-yl)methoxy)-9,10-dihydro-8H-7-oxa-1,3,6,10-tetraazacyclohepta[de]naphthalen-5-yl)-5-chloro-4-cyclopropylphenol], the results for the IC50 in assay [1], in assay [2] and in assay [3] were 405 nM, above 1000 nM and above 1000 nM, respectively.

In the case of `CC(c1cccnc1N)N1CCOc2nc(-c3cc(O)cc(Cl)c3C3CC3)c(F)c3nc(OC[C@@H]4CCCN4C)nc1c23` (single isomer, unassigned) [Compound 32, 3-(10-((R or S)-1-(2-aminopyridin-3-yl)ethyl)-4-fluoro-2-(((S)-1-methylpyrrolidin-2-yl)methoxy)-9,10-dihydro-8H-7-oxa-1,3,6,10-tetraazacyclohepta[de]naphthalen-5-yl)-5-chloro-4-cyclopropylphenol], the IC50 worked out at 3 nM in assay [1], 50 nM in assay [2] and 6 nM in assay [3].

Take `Cc1cc(N)cc(-c2nc3c4c(nc(OC[C@@]56CCCN5C[C@H](F)C6)nc4c2F)N(C(C)c2cccnn2)CCO3)c1C(F)(F)F` (single isomer, unassigned) [Compound 128, 3-(4-fluoro-2-(((2R,7aS)-2-fluorotetrahydro-1H-pyrrolizin-7a(5H)-yl)methoxy)-10-((R or S)-1-(pyridazin-3-yl)ethyl)-9,10-dihydro-8H-7-oxa-1,3,6,10-tetraazacyclohepta[de]naphthalen-5-yl)-5-methyl-4-(trifluoromethyl)aniline]: in assay [1], the IC50 is above 100 nM.

On to `Cc1ccc(C(C)N2CCOc3nc(-c4cc(N)c(F)c(C)c4C(F)(F)F)c(F)c4nc(OC[C@@]56CCCN5C[C@H](F)C6)nc2c34)c(N)n1` (single isomer, unassigned) [Compound 252, 3-((R or S)-1-(5-(5-amino-4-fluoro-3-methyl-2-(trifluoromethyl)phenyl)-4-fluoro-2-(((2R,7aS)-2-fluorotetrahydro-1H-pyrrolizin-7a(5H)-yl)methoxy)-8,9-dihydro-10H-7-oxa-1,3,6,10-tetraazacyclohepta[de]naphthalen-10-yl)ethyl)-6-methylpyridin-2-amine], for which the IC50 in assay [1] is above 100 nM.
